Assay results: ChEMBL document CHEMBL3616410, “Linked pyridinyl-thiadiazoles: Design and synthesis as potential candidate for treatment of XDR and MDR tuberculosis” (Eur J Med Chem, 2015)
In brackets after ≈: the same amount, converted by molar mass.

How the values were obtained:
[1] = Cytotoxicity against hamster BHK21 cells after 3 days; format: cell-based, Mesocricetus auratus, BHK-21
[2] = Cytotoxicity against human HepG2 cells after 3 days; format: cell-based
[3] = system: Mycobacterium tuberculosis; assay: Antimycobacterial activity against Mycobacterium tuberculosis H37Rv ATCC 27294 after 5 days by spectrophotometry; format: functional; conditions: H37Rv ATCC 27294, 120 h
[4] = system: Mycobacterium tuberculosis; assay: Bactericidal activity against Mycobacterium tuberculosis H37Rv ATCC 27294 after 5 days by spectrophotometry; format: functional
[5] = system: Mycobacterium tuberculosis; assay: Antimycobacterial activity against Mycobacterium tuberculosis TN913 after 5 days by spectrophotometry; format: functional; conditions: TN913, 120 h
[6] = system: Mycobacterium tuberculosis; assay: Antimycobacterial activity against Mycobacterium tuberculosis TN2524 after 5 days by spectrophotometry; format: functional; conditions: TN2524, 120 h
[7] = system: Mycobacterium tuberculosis; assay: Antimycobacterial activity against Mycobacterium tuberculosis TN1008 after 5 days by spectrophotometry; format: functional; conditions: TN1008, 120 h
[8] = system: Mycobacterium tuberculosis; assay: Antimycobacterial activity against Mycobacterium tuberculosis TN1082 after 5 days by spectrophotometry; format: functional; conditions: TN1082, 120 h
[9] = system: Mycobacterium tuberculosis; assay: Antimycobacterial activity against Mycobacterium tuberculosis BE11677 after 5 days by spectrophotometry; format: functional; conditions: BE11677, 120 h
[10] = system: Mycobacterium tuberculosis; assay: Antimycobacterial activity against Mycobacterium tuberculosis TN2351 after 5 days by spectrophotometry; format: functional; conditions: TN2351, 120 h
[11] = system: Mycobacterium tuberculosis; assay: Antimycobacterial activity against Mycobacterium tuberculosis TN3183 after 5 days by spectrophotometry; format: functional; conditions: TN3183, 120 h
[12] = system: Mycobacterium tuberculosis; assay: Antimycobacterial activity against Mycobacterium tuberculosis TN994 after 5 days by spectrophotometry; format: functional; conditions: TN994, 120 h
[13] = system: Mycobacterium tuberculosis; assay: Antimycobacterial activity against Mycobacterium tuberculosis AH9584 after 5 days by spectrophotometry; format: functional; conditions: AH9584, 120 h
[14] = system: Mycobacterium tuberculosis; assay: Antimycobacterial activity against Mycobacterium tuberculosis TN4259 after 5 days by spectrophotometry; format: functional; conditions: TN4259, 120 h
[15] = system: Mycobacterium tuberculosis; assay: Antimycobacterial activity against Mycobacterium tuberculosis TN3979 after 5 days by spectrophotometry; format: functional; conditions: TN3979, 120 h
[16] = system: Mycobacterium tuberculosis; assay: Antimycobacterial activity against Mycobacterium tuberculosis TN1037 after 5 days by spectrophotometry; format: functional; conditions: TN1037, 120 h
[17] = system: Mycobacterium tuberculosis; assay: Antimycobacterial activity against Mycobacterium tuberculosis TN675 after 5 days by spectrophotometry; format: functional; conditions: TN675, 120 h
[18] = system: Mycobacterium tuberculosis; assay: Antimycobacterial activity against Mycobacterium tuberculosis E8133 after 5 days by spectrophotometry; format: functional; conditions: E8133, 120 h
[19] = system: Mycobacterium tuberculosis; assay: Antimycobacterial activity against Mycobacterium tuberculosis W4 after 5 days by spectrophotometry; format: functional; conditions: W4, 120 h
[20] = system: Mycobacterium tuberculosis; assay: Antimycobacterial activity against Mycobacterium tuberculosis TN1051 after 5 days by spectrophotometry; format: functional; conditions: TN1051, 120 h
[21] = system: Mycobacterium tuberculosis; assay: Antimycobacterial activity against Mycobacterium tuberculosis TN1040 after 5 days by spectrophotometry; format: functional; conditions: TN1040, 120 h

SMILES	CC50 at 72 h [1]	CC50 at 72 h [2]	MIC50 [3]	MBC90 [4]	further results
O=C(CSc1nnc(-c2ccncc2)s1)Nc1ccccc1	16.2 µM	15.2 µM	0.18 µM (≈ 0.0591 µg/mL)	1.25 µM (≈ 0.411 µg/mL)	–
O=C(CSc1nnc(-c2ccncc2)s1)Nc1ccc(Cl)cc1	> 50 µM	> 50 µM	6.81 µM (≈ 2.47 µg/mL)	–	–
O=C(CSc1nnc(-c2ccncc2)s1)Nc1ccccc1Cl	> 50 µM	> 50 µM	8.52 µM (≈ 3.09 µg/mL)	–	–
CC(Sc1nnc(-c2ccncc2)s1)C(=O)Nc1ccccc1 (stereo unspecified)	> 50 µM	> 50 µM	1.48 µM (≈ 0.507 µg/mL)	5 µM (≈ 1.71 µg/mL)	–
O=C(CCSc1nnc(-c2ccncc2)s1)NCc1ccccc1Cl	> 50 µM	> 50 µM	0.65 µM (≈ 0.254 µg/mL)	2.5 µM (≈ 0.977 µg/mL)	–
O=C(CCSc1nnc(-c2ccncc2)s1)Nc1ccc(Cl)cc1Cl	> 50 µM	> 50 µM	0.55 µM (≈ 0.226 µg/mL)	2.5 µM (≈ 1.03 µg/mL)	–
O=C(CSc1nnc(-c2ccncc2)s1)NCc1ccc(Cl)cc1	> 50 µM	> 50 µM	11.7 µM (≈ 4.42 µg/mL)	–	–
O=C(CSc1nnc(-c2ccncc2)s1)Nc1c(Cl)cccc1Cl	–	–	> 20 µM	–	–
CC(Sc1nnc(-c2ccncc2)s1)C(=O)Nc1ccccc1Cl (stereo unspecified)	> 50 µM	> 50 µM	1.04 µM (≈ 0.392 µg/mL)	5 µM (≈ 1.88 µg/mL)	–
O=C(CCSc1nnc(-c2ccncc2)s1)Nc1ccccc1	> 50 µM	> 50 µM	0.61 µM (≈ 0.209 µg/mL)	2.5 µM (≈ 0.856 µg/mL)	–
CC(Sc1nnc(-c2ccncc2)s1)C(=O)Nc1c(Cl)cccc1Cl (stereo unspecified)	> 50 µM	> 50 µM	1.19 µM (≈ 0.489 µg/mL)	5 µM (≈ 2.06 µg/mL)	–
CC(CSc1nnc(-c2ccncc2)s1)C(=O)Nc1c(Cl)cccc1Cl (stereo unspecified)	> 50 µM	> 50 µM	1.55 µM (≈ 0.659 µg/mL)	5 µM (≈ 2.13 µg/mL)	–
CC(CSc1nnc(-c2ccncc2)s1)C(=O)Nc1ccccc1Cl (stereo unspecified)	> 50 µM	> 50 µM	2.05 µM (≈ 0.801 µg/mL)	5 µM (≈ 1.95 µg/mL)	–
CC(CSc1nnc(-c2ccncc2)s1)C(=O)Nc1ccc(Cl)cc1 (stereo unspecified)	> 50 µM	> 50 µM	0.22 µM (≈ 0.086 µg/mL)	1.25 µM (≈ 0.489 µg/mL)	–
O=C(CSc1nnc(-c2ccncc2)s1)Nc1ccc(Cl)cc1Cl	–	–	> 20 µM	–	–
CC(Sc1nnc(-c2ccncc2)s1)C(=O)NCc1ccccc1Cl (stereo unspecified)	> 50 µM	> 50 µM	1.26 µM (≈ 0.493 µg/mL)	5 µM (≈ 1.95 µg/mL)	–
CC(CSc1nnc(-c2ccncc2)s1)C(=O)NCc1ccccc1Cl (stereo unspecified)	> 50 µM	> 50 µM	1.89 µM (≈ 0.765 µg/mL)	5 µM (≈ 2.02 µg/mL)	–

SMILES	CC50 at 72 h [1]	CC50 at 72 h [2]	MIC50 [3]	MBC90 [4]	further results
CC(CSc1nnc(-c2ccncc2)s1)C(=O)Nc1ccc(Cl)cc1Cl (stereo unspecified)	> 50 µM	> 50 µM	1.48 µM (≈ 0.63 µg/mL)	5 µM (≈ 2.13 µg/mL)	–
O=C(CCSc1nnc(-c2ccncc2)s1)NCc1ccc(Cl)cc1	21.5 µM	15.6 µM	0.63 µM (≈ 0.246 µg/mL)	2.5 µM (≈ 0.977 µg/mL)	–
O=C(CCSc1nnc(-c2ccncc2)s1)NCc1ccccc1	18.7 µM	14 µM	0.67 µM (≈ 0.239 µg/mL)	2.5 µM (≈ 0.891 µg/mL)	–
CC(CSc1nnc(-c2ccncc2)s1)C(=O)NCc1ccc(Cl)cc1 (stereo unspecified)	–	–	1.68 µM (≈ 0.68 µg/mL)	–	–
O=C(CCSc1nnc(-c2ccncc2)s1)Nc1ccccc1Cl	> 50 µM	> 50 µM	0.62 µM (≈ 0.234 µg/mL)	2.5 µM (≈ 0.942 µg/mL)	–
CC(Sc1nnc(-c2ccncc2)s1)C(=O)Nc1ccc(Cl)cc1 (stereo unspecified)	> 50 µM	> 50 µM	0.12 µM (≈ 0.0452 µg/mL)	1.25 µM (≈ 0.471 µg/mL)	–
O=C(CSc1nnc(-c2ccncc2)s1)NCc1ccccc1Cl	–	–	9.67 µM (≈ 3.64 µg/mL)	–	–
CC(Sc1nnc(-c2ccncc2)s1)C(=O)NCc1ccccc1 (stereo unspecified)	> 50 µM	> 50 µM	1.15 µM (≈ 0.41 µg/mL)	5 µM (≈ 1.78 µg/mL)	–
CC(Sc1nnc(-c2ccncc2)s1)C(=O)NCc1ccc(Cl)cc1 (stereo unspecified)	–	–	> 20 µM	–	–
S=c1[nH]nc(-c2ccncc2)s1	14.7 µM	19.7 µM	0.2 µM (≈ 0.0391 µg/mL)	1.25 µM (≈ 0.244 µg/mL)	–
CC(CSc1nnc(-c2ccncc2)s1)C(=O)NCc1ccccc1 (stereo unspecified)	> 50 µM	> 50 µM	2.51 µM (≈ 0.93 µg/mL)	5 µM (≈ 1.85 µg/mL)	–
CC(Sc1nnc(-c2ccncc2)s1)C(=O)Nc1ccc(Cl)cc1Cl (stereo unspecified)	> 50 µM	> 50 µM	2.45 µM (≈ 1.01 µg/mL)	5 µM (≈ 2.06 µg/mL)	–
O=C(CSc1nnc(-c2ccncc2)s1)NCc1ccccc1	11.3 µM	17.7 µM	0.19 µM (≈ 0.0651 µg/mL)	1.25 µM (≈ 0.428 µg/mL)	–
O=C(CCSc1nnc(-c2ccncc2)s1)Nc1c(Cl)cccc1Cl	10.3 µM	12.6 µM	0.59 µM (≈ 0.243 µg/mL)	2.5 µM (≈ 1.03 µg/mL)	–
CC(CSc1nnc(-c2ccncc2)s1)C(=O)Nc1ccccc1 (stereo unspecified)	> 50 µM	> 50 µM	2.26 µM (≈ 0.806 µg/mL)	5 µM (≈ 1.78 µg/mL)	–
O=C(CCSc1nnc(-c2ccncc2)s1)Nc1ccc(Cl)cc1	8.21 µM	7.26 µM	0.07 µM (≈ 0.0264 µg/mL)	1.25 µM (≈ 0.471 µg/mL)	MIC [5]: 0.013 µg/mL (≈ 0.0345 µM); MIC [6]: 0.25 µg/mL (≈ 0.663 µM); MIC [7]: 0.06 µg/mL (≈ 0.159 µM); MIC [8]: 0.06 µg/mL (≈ 0.159 µM); MIC [9]: 0.25 µg/mL (≈ 0.663 µM); MIC [10]: 0.25 µg/mL (≈ 0.663 µM); MIC [11]: 0.06 µg/mL (≈ 0.159 µM); MIC [12]: 0.03 µg/mL (≈ 0.0796 µM); MIC [13]: 0.25 µg/mL (≈ 0.663 µM); MIC [14]: 0.06 µg/mL (≈ 0.159 µM); MIC [3]: 0.015 µg/mL (≈ 0.0398 µM); MIC [15]: 0.13 µg/mL (≈ 0.345 µM); MIC [16]: 0.06 µg/mL (≈ 0.159 µM); MIC [17]: 0.013 µg/mL (≈ 0.0345 µM); MIC [18]: 0.13 µg/mL (≈ 0.345 µM); MIC [19]: 0.06 µg/mL (≈ 0.159 µM); MIC [20]: 0.06 µg/mL (≈ 0.159 µM); MIC [21]: 0.03 µg/mL (≈ 0.0796 µM)
NNC(=O)c1ccncc1 [ISONIAZID]	–	–	0.03 µM (≈ 0.00411 µg/mL)	–	MIC [5]: 0.03 µg/mL (≈ 0.219 µM); MIC [6]: 0.06 µg/mL (≈ 0.438 µM); MIC [7]: 0.06 µg/mL (≈ 0.438 µM); MIC [8]: 0.03 µg/mL (≈ 0.219 µM); MIC [9]: 0.2 µg/mL (≈ 1.46 µM); MIC [10]: 0.06 µg/mL (≈ 0.438 µM); MIC [11]: 0.03 µg/mL (≈ 0.219 µM); MIC [12]: 0.03 µg/mL (≈ 0.219 µM); MIC [13]: 0.19 µg/mL (≈ 1.39 µM); MIC [14]: 0.03 µg/mL (≈ 0.219 µM); MIC [3]: 0.03 µg/mL (≈ 0.219 µM); MIC [15]: 0.06 µg/mL (≈ 0.438 µM); MIC [16]: 0.03 µg/mL (≈ 0.219 µM); MIC [17]: 0.03 µg/mL (≈ 0.219 µM); MIC [18]: 0.08 µg/mL (≈ 0.583 µM); MIC [19]: 0.03 µg/mL (≈ 0.219 µM); MIC [20]: 0.03 µg/mL (≈ 0.219 µM); MIC [21]: 0.03 µg/mL (≈ 0.219 µM)
